Read-outs that look alike come from different tables or passages of the source.
Assays:
FDHC23S+AzoRo [1] = conditions: 1 mM NAD+; 50 mM phosphate pH 7; 25 °C; apparent; FDH part
FDHC23S+AzoRo [2] = conditions: 150 μM NADH; 50 μM FMN; 50 mM phosphate pH 7; 25 °C; apparent; AzoRo part
FDHC23S+AzoRo [3] = conditions: 150 μM NADH; 50 μM FMN; 50 mM phosphate pH 7; 25 °C; apparent; AzoRo part; remark: listed apart in the source

For `O=CO` [Formate], the Km (FDHC23S+AzoRo [1]) was 48900 ± 4880 µM.

With `CN(C)c1ccc(/N=N/c2ccccc2C(=O)O)cc1` [compound 1, methyl red] the Km (FDHC23S+AzoRo [2]) was 73.9 ± 47.5 µM.

Compound `CC(=O)Nc1ccc(S(=O)(=O)O)c2cc(S(=O)(=O)O)c(N=Nc3ccc(N=Nc4ccc(S(=O)(=O)O)cc4)c4ccc(S(=O)(=O)O)cc34)c(O)c12` [compound 5, Brilliant Black BN] has a Km (FDHC23S+AzoRo [3]) of 6.01 ± 1.39 µM.

From paper PMC9305538 (Chembiochem, 2022)
